Results: publication PMC10262914 (Bioorganic chemistry, 2022)
In brackets after ≈: the same amount, converted by molar mass. Read-outs that look alike come from different tables or passages of the source.

Experiments:
[1] = system: Mycobacterium tuberculosis H37Rv; assay: Alamar blue metabolic readout assay; format: cell-based; details: for GAS MIC: M. tuberculosis H37Rv; for MIC: Mycobacterium tuberculosis, H37RV, read-out: GAS MIC
[2] = system: VERO cells (kidney epithelial cells); assay: Toxicity against VERO cells; format: cell-based
[3] = system: Mycobacterium tuberculosis H37Rv; assay: Low oxygen recovery assay; format: cell-based; details: Mycobacterium tuberculosis, H37RV, read-out: LORA MIC
[4] = system: Mycobacterium tuberculosis H37Rv; assay: Alamar blue metabolic readout assay; format: cell-based; details: for 7H12 MIC: M. tuberculosis H37Rv; for MIC: Mycobacterium tuberculosis, H37RV, read-out: 7H12 MIC
[5] = system: Mycobacterium tuberculosis H37Rv; assay: Alamar blue assay, MIC stated as range over GAS and 7H12 media; format: cell-based
[6] = mouse, microsomes
in vitro [7] = details: monkey, microsomes, pH 7.4
[8] = human, microsomes
in vitro [9] = details: mouse, microsomes, pH 7.4
[10] = microsomes
in vitro [11] = details: human, microsomes, pH 7.4
[12] = Chlorocebus sabaeus, Vero, read-out: Vero IC50, toxicity against Vero cells

Row | SMILES | GAS MIC ([1]; GAS media) | MIC [1] | IC50 [2, 12] | MIC [3] | 7H12 MIC ([4]; 7H12 media) | MIC [4] | fold less active than 30 ([1]; GAS media, MIC ratio versus compound 30 (printed as 4-OCF3 para)) | fold less active than 30 ([4]; 7H12 media, MIC ratio versus compound 30 (printed as 4-OCF3 para)) | fold less active than 37 ([4]; 7H12 media, MIC ratio versus para isomer 37) | MIC (range over both media) ([5]; H37Rv) | fold less active than 46 ([5]; versus 46 (3,5-difluoro)) | CLint [6] | half-life at 2 μM (in vitro [7]) | CLint [8] | half-life at 2 μM (in vitro [9]) | CLint [10] | half-life at 2 μM (in vitro [11]) | IC50 ([2]; read-out: Vero IC50, toxicity against Vero cells)
1 | [2H]c1c(C([2H])([2H])[2H])c([2H])n2c(C(=O)NCc3cccc(Cl)c3)c(C)nc2c1[2H] [Compound 41, N-(3-Chlorobenzyl)-2-methyl-6-(methyl-d3)imidazo[1,2-a] pyridine-5,7,8-d3-3-carboxamide] | 0.0035 ± 0.0003 µM | 0.0035 µM (≈ 1.12 ng/mL) | > 10 µM | 4.52 µM (≈ 1450 ng/mL) | 0.0222 ± 0.0057 µM | 0.0222 µM (≈ 7.1 ng/mL) | – | – | – | – | – | – | – | – | – | – | – | –
2 | [2H]c1c(C([2H])([2H])[2H])c([2H])n2c(C(=O)NCc3ccccc3Cl)c(C)nc2c1[2H] [Compound 42, N-(2-Chlorobenzyl)-2-methyl-6-(methyl-d3)imidazo[1,2-a] pyridine-5,7,8-d3-3-carboxamide] | 0.0134 ± 0.0022 µM | 0.0134 µM (≈ 4.29 ng/mL) | > 10 µM | 8.49 µM (≈ 2720 ng/mL) | 0.112 ± 0.0195 µM | 0.112 µM (≈ 35.8 ng/mL) | – | – | – | – | – | – | – | – | – | – | – | –
3 | [2H]c1c(C([2H])([2H])[2H])c([2H])n2c(C(=O)NCc3cccc(OC(F)(F)F)c3)c(C)nc2c1[2H] [Compound 43, 2-Methyl-6-(methyl-d3)-N-(3-(trifluoromethoxy)benzyl)imidazo [1,2-a]pyridine-5,7,8-d3-3-carboxamide] | – | 0.0263 ± 0.0036 µM (≈ 9.71 ng/mL) | > 10 µM | 4.92 µM (≈ 1820 ng/mL) | – | 0.108 ± 0.0074 µM (≈ 39.9 ng/mL) | ~ 2.9 fold | > 28 fold | – | – | – | – | – | – | – | – | – | –
4 | [2H]c1c(C([2H])([2H])[2H])c([2H])n2c(C(=O)NCc3cccc(OC)c3)c(C)nc2c1[2H] [Compound 45, N-(3-Methoxybenzyl)-2-methyl-6-(methyl-d3)imidazo[1,2-a] pyridine-5,7,8-d3-3-carboxamide] | 0.0205 ± 0.0004 µM | 0.0205 µM (≈ 6.47 ng/mL) | – | – | 0.105 ± 0.0191 µM | 0.105 µM (≈ 33.1 ng/mL) | – | – | 3 fold | – | – | – | – | – | – | – | – | –
5 | [2H]c1c(C([2H])([2H])[2H])c([2H])n2c(C(=O)NCc3cc(F)cc(F)c3)c(C)nc2c1[2H] [Compound 46, N-(3,5-Difluorobenzyl)-2-methyl-6-(methyl-d3)imidazo[1,2-a] pyridine-5,7,8-d3-3-carboxamide] | 0.0072 ± 0.0016 µM | 0.0072 µM (≈ 2.31 ng/mL) | > 10 µM | 6.91 µM (≈ 2220 ng/mL) | 0.0124 ± 0.0045 µM | 0.0124 µM (≈ 3.98 ng/mL) | – | – | – | 0.007 to 0.012 µM | – | – | – | – | – | – | – | –
6 | [2H]c1c(C([2H])([2H])[2H])c([2H])n2c(C(=O)NCc3cc(Cl)cc(Cl)c3)c(C)nc2c1[2H] [Compound 47, N-(3,5-Dichlorobenzyl)-2-methyl-6-(methyl-d3)imidazo[1,2-a] pyridine-5,7,8-d3-3-carboxamide] | 0.0188 ± 0.0028 µM | 0.0188 µM (≈ 6.66 ng/mL) | > 10 µM | 8.87 µM (≈ 3140 ng/mL) | 0.04 ± 0.013 µM | 0.04 µM (≈ 14.2 ng/mL) | – | – | – | – | > 2 fold | – | – | – | – | – | – | –
7 | [2H]c1c(C)cn2c(C(=O)NCc3ccc(C(F)(F)F)cc3)c(C([2H])([2H])[2H])nc2c1[2H] [Compound 52, 6-Methyl-2-(methyl-d3)-N-(4-(trifluoromethyl)benzyl)imidazo [1,2-a]pyridine-7,8-d2-3-carboxamide] | – | 0.0074 ± 0.0028 µM (≈ 2.61 ng/mL) | > 50 µM | > 10 µM | – | 0.0039 ± 0.0016 µM (≈ 1.37 ng/mL) | – | – | – | – | – | 87 ml/min/g protein | 12 min | 30 ml/min/g protein | 16 min | 116 ml/min/g protein | 46 min | –
8 | [2H]c1c(C([2H])([2H])[2H])cn2c(C(=O)NCc3ccc(C(F)(F)F)cc3)c(C([2H])([2H])[2H])nc2c1[2H] [Compound 55, 2,6-Bis(methyl-d3)-N-(4-(trifluoromethyl)benzyl)imidazo[1,2-a] pyridine-7,8-d2-3-carboxamide] | – | 0.0096 ± 0.0026 µM (≈ 3.41 ng/mL) | > 50 µM | > 10 µM | – | 0.0049 ± 0.0013 µM (≈ 1.74 ng/mL) | – | – | – | – | – | 42 ml/min/g protein | 14 min | 38 ml/min/g protein | 33 min | 98 ml/min/g protein | 36 min | –
9 | Cc1ccc2nc(C)c(C(=O)NCc3ccc(C(F)(F)F)cc3)n2c1 [Compound 57, 2,6-Bis(Methyl-d3)-N-((4-(trifluoromethyl)phenyl)methyl-d2) imidazo[1,2-a]pyridine-7,8-d2-3-carboxamide] | – | – | – | – | – | – | – | – | – | – | – | – | – | – | – | – | – | > 50 µM
10 | CCc1nc2ccc(Cl)cn2c1C(=O)NCc1ccc(N2CCC(c3ccc(OC(F)(F)F)cc3)CC2)cc1 [Compound Q203, Telacebec, reference compound] | 0.0009 ± 0.0004 µM | 0.0009 µM (≈ 0.501 ng/mL) | – | > 5 µM | 0.0036 ± 0.0005 µM | 0.0036 µM (≈ 2.01 ng/mL) | – | – | – | – | – | – | – | – | – | – | – | –
